Data reported in US12528837B2, “Aryl substituted polymyxin derivatives” (priority 2018, dated 2026).
Converted amounts (≈) assume the structure as drawn. Read-outs that look alike come from different tables or passages of the source. Where a SMILES comes first, the peptide text is derived from it. Bridges are numbered along the chain shown (N, C = ends). [ ]: non-standard residue; d: D form. The star is where a group is joined. X6 = CC(C)Cc1cccc([C@@H](CN)CC(=O)*)c1; X3 = CC(C)c1cccc([C@@H](CN)CC(=O)*)c1; X8 = NC[C@@H](CC(=O)*)Cc1cccc(Cl)c1; X12 = NC[C@H](CC(=O)*)c1cccc(Br)c1; X13 = Cc1cccc([C@H](CN)CC(=O)*)c1; X5 = NC[C@H](CC(=O)*)c1ccc(Cl)cc1; Dab = NCC[C@H](N)C(=O)O; Abu = CC[C@H](N)C(=O)O; Dap = NC[C@H](N)C(=O)O

How the values were obtained:
HK-2 cells = assay: In vitro renal cell toxicity assay (HK-2); assay type: cell-based
Summary of the method: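 HK-2 cells seeded 7,500/well, adhered overnight, then exposed to compound for 24 h at 37° C, 5% CO2, with 5% water and 0.5% DMSO. Background-subtracted, vehicle-normalised dose-response fitted with bottom fixed at zero; IC50 reported relative to PMB in the same run, median where repeated.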

P. aeruginosa ATCC 27853 = assay type: cell-based
Method: (§1) The inoculum was prepared by making a direct suspension of isolated colonies (selected from an 18-24 hour Mueller-Hinton agar plate) adjusted to the 0.5 McFarland standard. […] The assays were performed in duplicate. […] The MIC values are quoted in μg/mL.

A. baumannii NCTC 13424 = assay type: cell-based
Method: as §1

[1] = system: A. baumannii ATCC BAA-747; assay type: cell-based
Method: as §1

K. pneumoniae ATCC 13822 = assay type: cell-based
Method: as §1

E. coli ATCC 25922 = assay type: cell-based
Method: as §1

[2] = Kidney drug level after subcutaneous dose in mouse; assay type: in vivo; conditions: mouse, in vivo; for tissue level at time at 4 h: sc, 17.2 mg/kg
Summary of the method: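 Mice were euthanised four hours after subcutaneous dosing. Both kidneys were trimmed, weighed, snap-frozen, then homogenised with zirconium oxide beads. After centrifugation (13,000 rpm, 6 °C, 10 min), supernatants were analysed by LC-MS-MS.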

E. coli CA58 = assay type: cell-based
Summary of the method: (§2)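 First, isolated colonies from an 18-24 hour Mueller-Hinton plate were suspended and standardised to 0.5 McFarland. Testing was then carried out in duplicate. For repeatedly tested compounds the reported MIC, expressed in μg/mL, is the median result.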

K. pneumoniae CA64 = assay type: cell-based
Summary of the method: as §2

P. aeruginosa CCUG 59347 = assay type: cell-based
Summary of the method: as §2

[3] = cation-adjusted Mueller-Hinton Broth, 18-20 h, 35° C.

| SMILES | HK-2 rel to PMB (HK-2 cells) | MIC P. aeruginosa ATCC 27853 (P. aeruginosa ATCC 27853; ATCC 27853) | MIC A. baumannii NCTC 13424 (A. baumannii NCTC 13424; NCTC 13424) | MIC A. baumannii ATCC BAA-747 ([1]; ATCC BAA-747) | MIC K. pneumoniae ATCC 13822 (K. pneumoniae ATCC 13822; ATCC 13822) | MIC E. coli ATCC 25922 (E. coli ATCC 25922; ATCC 25922) | tissue level at time at 4 h [2] | MIC E. coli CA58 (E. coli CA58; CA58) | MIC K. pneumoniae CA64 (K. pneumoniae CA64; CA64) | MIC P. aeruginosa CCUG 59347 (P. aeruginosa CCUG 59347; CCUG 59347) | 4 hr kidney level/rel. cytotoxicity [2] | MIC P. aeruginosa ATCC 27853 (P. aeruginosa ATCC 27853; [3]) | MIC A. baumannii NCTC 13424 (A. baumannii NCTC 13424; [3]) | MIC A. baumannii ATCC BAA-747 [1, 3] | MIC K. pneumoniae ATCC 13822 (K. pneumoniae ATCC 13822; [3]) | MIC E. coli ATCC 25922 (E. coli ATCC 25922; [3]) | MIC E. coli CA58 (E. coli CA58; [3]) | MIC K. pneumoniae CA64 (K. pneumoniae CA64; [3]) | MIC P. aeruginosa CCUG 59347 (P. aeruginosa CCUG 59347; [3]) |
| --- | --- | --- | --- | --- | --- | --- | --- | --- | --- | --- | --- | --- | --- | --- | --- | --- | --- | --- | --- |
| CC(C)C[C@@H]1NC(=O)[C@@H](Cc2ccccc2)NC(=O)[C@H](CCN)NC(=O)[C@@H](NC(=O)[C@H](CN)NC(=O)[C@@H](NC(=O)C[C@H](CN)Cc2cccc(Cl)c2)[C@@H](C)O)CCNC(=O)[C@H]([C@@H](C)O)NC(=O)[C@H](CCN)NC(=O)[C@H](CCN)NC1=O [Example 11, (R)-4-amino-3-(3- chlorobenzyl)butanoyl- Thr-Dap-Cyclo[Dab- Dab-DPhe-Leu-Dab- Dab-Thr]. Isomer 1] (X8-T[Dap][Dab][Dab][dF]L[Dab][Dab]T; lactam 3-C) | 5.2 | 0.25 µg/mL (≈ 0.216 µM) | 0.25 µg/mL (≈ 0.216 µM) | 0.5 µg/mL (≈ 0.431 µM) | 0.5 µg/mL (≈ 0.431 µM) | 0.5 µg/mL (≈ 0.431 µM) | 163000 ng/g | 4 µg/mL (≈ 3.45 µM) | 16 µg/mL (≈ 13.8 µM) | 0.5 µg/mL (≈ 0.431 µM) |  |  |  |  |  |  |  |  |  |
| CC(C)C[C@H]1NC(=O)[C@H](CCN)NC(=O)[C@@H](NC(=O)[C@H](CN)NC(=O)[C@@H](NC(=O)C[C@H](CN)c2cccc(C(C)C)c2)[C@@H](C)O)CCNC(=O)[C@H]([C@@H](C)O)NC(=O)[C@H](CCN)NC(=O)[C@H](CCN)NC(=O)[C@H]([C@@H](C)O)NC1=O [Example 19, (S)-4-amino-3-(3- isopropylphenyl) butanoyl-Thr-Dap- Cyclo[Dab-Dab-DLeu- Thr-Dab-Dab-Thr]] (X3-T[Dap][Dab][Dab][dL]T[Dab][Dab]T; lactam 3-C) | 101.4 | 0.25 µg/mL (≈ 0.226 µM) | 0.25 µg/mL (≈ 0.226 µM) | 0.25 µg/mL (≈ 0.226 µM) | 0.25 µg/mL (≈ 0.226 µM) | 0.25 µg/mL (≈ 0.226 µM) | 386000 ng/g | 32 µg/mL (≈ 28.9 µM) | 64 µg/mL (≈ 57.8 µM) | 1 µg/mL (≈ 0.904 µM) |  |  |  |  |  |  |  |  |  |
| CC(C)C[C@@H]1NC(=O)[C@@H](Cc2ccccc2)NC(=O)[C@H](CCN)NC(=O)[C@@H](NC(=O)[C@H](CN)NC(=O)[C@@H](NC(=O)C[C@@H](CN)c2ccc(Cl)cc2)[C@@H](C)O)CCNC(=O)[C@H]([C@@H](C)O)NC(=O)[C@H](CCN)NC(=O)[C@H](CCN)NC1=O [Example 2, (R)-4-amino-3-(4- chlorophenyl)butanoyl- Thr-Dap-Cyclo[Dab- Dab-DPhe-Leu-Dab- Dab-Thr]] (X5-T[Dap][Dab][Dab][dF]L[Dab][Dab]T; lactam 3-C) | 7.2 | 0.25 µg/mL (≈ 0.218 µM) | 0.25 µg/mL (≈ 0.218 µM) | 0.25 µg/mL (≈ 0.218 µM) | 0.25 µg/mL (≈ 0.218 µM) | 0.25 µg/mL (≈ 0.218 µM) | 538000 ng/g | 8 µg/mL (≈ 6.99 µM) | 2 µg/mL (≈ 1.75 µM) | 0.5 µg/mL (≈ 0.437 µM) | 75 |  |  |  |  |  |  |  |  |
| CC(C)C[C@@H]1NC(=O)[C@@H](CC(C)C)NC(=O)[C@H](CCN)NC(=O)[C@@H](NC(=O)[C@H](CN)NC(=O)[C@@H](NC(=O)C[C@H](CN)Cc2cccc(Cl)c2)[C@@H](C)O)CCNC(=O)[C@H]([C@@H](C)O)NC(=O)[C@H](CCN)NC(=O)[C@H](CCN)NC1=O [Example 14, (R)-4-amino-3-(3- chlorobenzy!)butanoyl- Thr-Dap-Cyclo[Dab- Dab-DLeu-Leu-Dab- Dab-Thr] Isomer 1] (X8-T[Dap][Dab][Dab][dL]L[Dab][Dab]T; lactam 3-C) |  | 0.5 µg/mL (≈ 0.445 µM) | 0.5 µg/mL (≈ 0.445 µM) | 0.5 µg/mL (≈ 0.445 µM) | 0.5 µg/mL (≈ 0.445 µM) | 1 µg/mL (≈ 0.889 µM) |  | 8 µg/mL (≈ 7.11 µM) | 32 µg/mL (≈ 28.4 µM) | 1 µg/mL (≈ 0.889 µM) |  |  |  |  |  |  |  |  |  |
| Cc1cccc([C@H](CN)CC(=O)N[C@H](C(=O)N[C@@H](CN)C(=O)N[C@H]2CCNC(=O)[C@H]([C@@H](C)O)NC(=O)[C@H](CCN)NC(=O)[C@H](CCN)NC(=O)[C@H](CC(C)C)NC(=O)[C@@H](Cc3ccccc3)NC(=O)[C@H](CCN)NC2=O)[C@@H](C)O)c1 [Example 22, (R)-4-amino-3-(m- toly)butanoyl-Thr- Dap-Cyclo[Dab-Dab- DPhe-Leu-Dab-Dab- Thr]] (X13-T[Dap][Dab][Dab][dF]L[Dab][Dab]T; lactam 3-C) |  |  |  |  |  |  |  |  |  |  |  | 0.25 µg/mL (≈ 0.222 µM) | 1 µg/mL (≈ 0.889 µM) | 1 µg/mL (≈ 0.889 µM) | 0.25 µg/mL (≈ 0.222 µM) | 0.25 µg/mL (≈ 0.222 µM) | 16 µg/mL (≈ 14.2 µM) | 8 µg/mL (≈ 7.12 µM) | 0.5 µg/mL (≈ 0.445 µM) |
| CC[C@@H]1NC(=O)[C@@H](CC(C)C)NC(=O)[C@H](CCN)NC(=O)[C@@H](NC(=O)[C@H](CN)NC(=O)[C@@H](NC(=O)C[C@@H](CN)c2cccc(Br)c2)[C@@H](C)O)CCNC(=O)[C@H]([C@@H](C)O)NC(=O)[C@H](CCN)NC(=O)[C@H](CCN)NC1=O [Example 33, (R)-4-amino-3-(3- bromophenyl)butanoyl- Thr-Dap-Cyclo[Dab- Dab-DLeu-Abu-Dab- Dab-Thr],] (X12-T[Dap][Dab][Dab][dL][Abu][Dab][Dab]T; lactam 3-C) |  |  |  |  |  |  |  |  |  |  |  | 0.5 µg/mL (≈ 0.444 µM) | 1 µg/mL (≈ 0.887 µM) | 1 µg/mL (≈ 0.887 µM) | 0.5 µg/mL (≈ 0.444 µM) | 0.5 µg/mL (≈ 0.444 µM) | 64 µg/mL (≈ 56.8 µM) | 16 µg/mL (≈ 14.2 µM) | 0.5 µg/mL (≈ 0.444 µM) |
| CC[C@@H]1NC(=O)[C@@H](CC(C)C)NC(=O)[C@H](CCN)NC(=O)[C@@H](NC(=O)[C@H](CN)NC(=O)[C@@H](NC(=O)C[C@H](CN)c2cccc(CC(C)C)c2)[C@@H](C)O)CCNC(=O)[C@H]([C@@H](C)O)NC(=O)[C@H](CCN)NC(=O)[C@H](CCN)NC1=O [Example 26, (S)-4-amino-3-(3- isobutylphenyl)butanoyl- Thr-Dap- Cyclo[Dab-Dab-DLeu- Abu-Dab-Dab-Thr]] (X6-T[Dap][Dab][Dab][dL][Abu][Dab][Dab]T; lactam 3-C) | >58 | 0.25 µg/mL (≈ 0.226 µM) | 0.03 µg/mL (≈ 0.0272 µM) | 0.06 µg/mL (≈ 0.0543 µM) | 0.5 µg/mL (≈ 0.453 µM) | 0.06 µg/mL (≈ 0.0543 µM) | 353000 ng/g | 8 µg/mL (≈ 7.24 µM) | 8 µg/mL (≈ 7.24 µM) | 0.5 µg/mL (≈ 0.453 µM) |  |  |  |  |  |  |  |  |  |
